Measurements as given in US20080194552A1, “Aminopyrimidine Derivatives With Tie2 Inhibiting Activity” (ASTRAZENECA AB, priority 2005, published 2008).

Biological target: T1, Tie2 receptor tyrosine kinase (Homo sapiens, UniProt Q02763)
T1 construct: one can use natural cell lines or primary cells which are known to express the receptor of choice; endogenous in cells; host or cells: EA.hy926/B3 cells (HUVEC named as an alternative)
Assay: Cellular Tie2 autophosphorylation assay
Assay type: cell-based
Conditions: whole cells, e.g. Ang1 ligand stimulated EA.hy926/B3 cells; read-out: IC50 Inhibition of autophosphorylation of Tie2 receptor tyrosine kinase
From the text: The following assay can be used to measure the effects of the compounds of the present invention as inhibitors of Tie2 autophosphorylation in whole cells.
Cellular Tie2 Autophosphorylation Assay
This assay is based on measuring the ability of compounds to inhibit autophosphorylation of the Tie2 receptor which normally leads to the production of “activated” receptor that in turn initiates the particular signal transduction pathways associated with the receptor function.
Autophosphorylation can be achieved by a number of means. It is known that expression of recombinant kinase domains in baculoviral systems can lead to the production of phosphorylated and activated receptor. […]
Naturally if the ligand is available one can use natural cell lines or primary cells which are known to express the receptor of choice and simply stimulate with ligand to achieve ligand induced phosphorylation. The ability of compounds to inhibit autophosphorylation of the Tie2 receptor, which is expressed for example in EA.hy926/B3 cells (supplied by J. McLean/B. Tuchi, Univ. of N. Carolina at Chapel Hill, CB-4100, 300 Bynum Hall, Chapel Hill, N.C. 27599-41000, USA) or primary HUVEC (human umbilical vein endothelial cells—available from various commercial sources), can measured by this assay. […]

T1 sequence (Q02763 23-1124): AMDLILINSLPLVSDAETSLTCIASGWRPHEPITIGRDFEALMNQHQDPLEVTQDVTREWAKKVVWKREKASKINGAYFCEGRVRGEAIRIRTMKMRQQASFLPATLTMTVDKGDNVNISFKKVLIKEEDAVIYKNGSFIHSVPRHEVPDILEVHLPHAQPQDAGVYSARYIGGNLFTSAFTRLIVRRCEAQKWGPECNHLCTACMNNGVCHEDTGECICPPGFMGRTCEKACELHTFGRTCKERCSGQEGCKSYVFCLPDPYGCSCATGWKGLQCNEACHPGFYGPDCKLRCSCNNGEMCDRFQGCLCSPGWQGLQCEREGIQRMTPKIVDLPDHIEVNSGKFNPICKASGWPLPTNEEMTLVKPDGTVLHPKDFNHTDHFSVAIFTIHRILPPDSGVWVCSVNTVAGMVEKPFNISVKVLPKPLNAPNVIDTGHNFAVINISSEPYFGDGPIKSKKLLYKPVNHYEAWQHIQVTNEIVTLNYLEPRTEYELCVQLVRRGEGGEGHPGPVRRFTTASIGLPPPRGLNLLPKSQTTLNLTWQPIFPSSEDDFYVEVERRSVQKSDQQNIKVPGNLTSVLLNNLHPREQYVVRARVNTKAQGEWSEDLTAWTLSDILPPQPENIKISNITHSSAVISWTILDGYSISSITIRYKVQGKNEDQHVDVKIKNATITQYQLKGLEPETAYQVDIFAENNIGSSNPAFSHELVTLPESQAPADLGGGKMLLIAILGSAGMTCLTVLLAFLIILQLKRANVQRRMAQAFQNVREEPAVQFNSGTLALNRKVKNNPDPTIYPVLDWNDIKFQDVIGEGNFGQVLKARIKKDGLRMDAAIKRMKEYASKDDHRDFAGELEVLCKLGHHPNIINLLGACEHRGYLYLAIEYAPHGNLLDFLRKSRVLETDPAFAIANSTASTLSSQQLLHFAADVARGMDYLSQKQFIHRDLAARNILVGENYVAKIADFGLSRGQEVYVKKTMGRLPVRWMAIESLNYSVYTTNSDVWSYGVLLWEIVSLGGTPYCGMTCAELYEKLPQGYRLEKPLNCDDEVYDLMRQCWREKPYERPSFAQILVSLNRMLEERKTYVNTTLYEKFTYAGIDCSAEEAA

IC50	Structure (SMILES)
16 nM	Nc1ncc(C#Cc2ccc(C(=O)Nc3cc(C(F)(F)F)ccc3F)s2)cn1 [Example 1, 5-[(2-Aminopyrimidin-5-yl)ethynyl]-N-[2-fluoro-5-(trifluoromethyl)phenyl]thiophene-2-carboxamide]
26 nM	Nc1ncc(C#Cc2csc(C(=O)Nc3cc(C(F)(F)F)ccc3F)c2)cn1 [Example 2, 4-[(2-Aminopyrimidin-5-yl)ethynyl]-N-[2-fluoro-5-(trifluoromethyl)phenyl]thiophene-2-carboxamide]
